Assay results published in ChEMBL document CHEMBL4831486, “Design, synthesis and biological evaluation of pleuromutilin-Schiff base hybrids as potent anti-MRSA agents in vitro and in vivo” (Eur J Med Chem, 2021).
Converted amounts (≈) assume the structure as drawn.

What was measured:
[1] = tested on: Escherichia coli; experiment: Bactericidal activity against Escherichia coli ATCC 25922 assessed as inhibition of bacterial growth measured after 96 hrs by broth dilution method; format: functional
[2] = tested on: Staphylococcus aureus; experiment: Antibacterial activity against Staphylococcus aureus 144 assessed as inhibition of bacterial growth measured after 24 hrs by broth dilution method; format: functional
[3] = tested on: Staphylococcus aureus; experiment: Antibacterial activity against Staphylococcus aureus ATCC 29213 assessed as inhibition of bacterial growth measured after 24 hrs by broth dilution method; format: functional
[4] = tested on: Staphylococcus aureus; experiment: Bactericidal activity against Staphylococcus aureus ATCC 29213 assessed as inhibition of bacterial growth measured after 96 hrs by broth dilution method; format: functional
[5] = tested on: Staphylococcus aureus; experiment: Antibacterial activity against Staphylococcus aureus AD3 assessed as inhibition of bacterial growth measured after 24 hrs by broth dilution method; format: functional
[6] = tested on: Staphylococcus aureus; experiment: Bactericidal activity against Methycillin-resistant Staphylococcus aureus ATCC 43300 assessed as inhibition of bacterial growth measured after 96 hrs by broth dilution method; format: functional
[7] = tested on: Staphylococcus aureus; experiment: Bactericidal activity against Staphylococcus aureus 144 assessed as inhibition of bacterial growth measured after 96 hrs by broth dilution method; format: functional
[8] = tested on: Escherichia coli; experiment: Antibacterial activity against Escherichia coli ATCC 25922 assessed as inhibition of bacterial growth measured after 24 hrs by broth dilution method; format: functional
[9] = tested on: HepG2; experiment: Cytotoxicity against human HepG2 cells assessed as reduced cell viability at 4 ug/ml measured after 16 hrs by MTT assay; format: cell-based; conditions: hepg2, 16 h, dose 4 µg/ml
[10] = tested on: Staphylococcus aureus; experiment: Antibacterial activity against Methycillin-resistant Staphylococcus aureus ATCC 43300 assessed as inhibition of bacterial growth measured after 24 hrs by broth dilution method; format: functional
[11] = tested on: Staphylococcus aureus; experiment: Bactericidal activity against Staphylococcus aureus AD3 assessed as inhibition of bacterial growth measured after 96 hrs by broth dilution method; format: functional
[12] = tested on: RAW264.7; experiment: Cytotoxicity against mouse RAW264.7 cells assessed as reduced cell viability at 4 ug/ml measured after 16 hrs by MTT assay; format: cell-based; conditions: raw264.7, 16 h, dose 4 µg/ml

Compound | MBC [1] | MIC [2] | MIC [3] | MBC [4] | MIC [5] | MBC [6] | MBC [7] | MIC [8] | Activity [9] | MIC [10] | MBC [11] | Activity [12]
C=C[C@]1(C)C[C@@H](OC(=O)CSc2nnc(C)n2/N=C/c2ccc(Cl)cc2)[C@]2(C)[C@H](C)CC[C@]3(CCC(=O)[C@H]32)[C@@H](C)[C@@H]1O | > 64 µg/mL | 2 µg/mL (≈ 3.26 µM) | 1 µg/mL (≈ 1.63 µM) | 2 µg/mL (≈ 3.26 µM) | 1 µg/mL (≈ 1.63 µM) | 2 µg/mL (≈ 3.26 µM) | 4 µg/mL (≈ 6.52 µM) | > 64 µg/mL | Non-Toxic | 0.5 µg/mL (≈ 0.815 µM) | 4 µg/mL (≈ 6.52 µM) | Non-Toxic
C=C[C@]1(C)C[C@@H](OC(=O)CSc2nnc(C)n2/N=C/c2cccc(Cl)c2)[C@]2(C)[C@H](C)CC[C@]3(CCC(=O)[C@H]32)[C@@H](C)[C@@H]1O | > 64 µg/mL | 2 µg/mL (≈ 3.26 µM) | 1 µg/mL (≈ 1.63 µM) | 4 µg/mL (≈ 6.52 µM) | 2 µg/mL (≈ 3.26 µM) | 2 µg/mL (≈ 3.26 µM) | 4 µg/mL (≈ 6.52 µM) | > 64 µg/mL | Non-Toxic | 1 µg/mL (≈ 1.63 µM) | 4 µg/mL (≈ 6.52 µM) | Non-Toxic
C=C[C@]1(C)C[C@@H](OC(=O)CSc2nnc(C)n2/N=C/c2cccc(O)c2)[C@]2(C)[C@H](C)CC[C@]3(CCC(=O)[C@H]32)[C@@H](C)[C@@H]1O | > 64 µg/mL | 2 µg/mL (≈ 3.36 µM) | 0.5 µg/mL (≈ 0.841 µM) | 2 µg/mL (≈ 3.36 µM) | 1 µg/mL (≈ 1.68 µM) | 1 µg/mL (≈ 1.68 µM) | 4 µg/mL (≈ 6.73 µM) | > 64 µg/mL | Non-Toxic | 0.5 µg/mL (≈ 0.841 µM) | 4 µg/mL (≈ 6.73 µM) | Non-Toxic
C=C[C@]1(C)C[C@@H](OC(=O)CSc2nnc(C)n2/N=C/c2cccc([N+](=O)[O-])c2)[C@]2(C)[C@H](C)CC[C@]3(CCC(=O)[C@H]32)[C@@H](C)[C@@H]1O | > 64 µg/mL | 2 µg/mL (≈ 3.21 µM) | 2 µg/mL (≈ 3.21 µM) | 8 µg/mL (≈ 12.8 µM) | 2 µg/mL (≈ 3.21 µM) | 2 µg/mL (≈ 3.21 µM) | 4 µg/mL (≈ 6.41 µM) | > 64 µg/mL | Non-Toxic | 1 µg/mL (≈ 1.6 µM) | 8 µg/mL (≈ 12.8 µM) | Non-Toxic
C=C[C@]1(C)C[C@@H](OC(=O)CSc2nnc(C)n2/N=C/c2ccc([N+](=O)[O-])cc2)[C@]2(C)[C@H](C)CC[C@]3(CCC(=O)[C@H]32)[C@@H](C)[C@@H]1O | > 64 µg/mL | 2 µg/mL (≈ 3.21 µM) | 2 µg/mL (≈ 3.21 µM) | 4 µg/mL (≈ 6.41 µM) | 2 µg/mL (≈ 3.21 µM) | 2 µg/mL (≈ 3.21 µM) | 8 µg/mL (≈ 12.8 µM) | > 64 µg/mL | Non-Toxic | 1 µg/mL (≈ 1.6 µM) | 8 µg/mL (≈ 12.8 µM) | Non-Toxic
C=C[C@]1(C)C[C@@H](OC(=O)CSc2nnc(C)n2/N=C/c2ccccc2C)[C@]2(C)[C@H](C)CC[C@]3(CCC(=O)[C@H]32)[C@@H](C)[C@@H]1O | > 64 µg/mL | 2 µg/mL (≈ 3.37 µM) | 1 µg/mL (≈ 1.69 µM) | 2 µg/mL (≈ 3.37 µM) | 1 µg/mL (≈ 1.69 µM) | 2 µg/mL (≈ 3.37 µM) | 4 µg/mL (≈ 6.75 µM) | > 64 µg/mL | Non-Toxic | 1 µg/mL (≈ 1.69 µM) | 4 µg/mL (≈ 6.75 µM) | Non-Toxic
C=C[C@]1(C)C[C@@H](OC(=O)CSc2nnc(C)n2/N=C/c2ccc(N(CC)CC)cc2)[C@]2(C)[C@H](C)CC[C@]3(CCC(=O)[C@H]32)[C@@H](C)[C@@H]1O | > 64 µg/mL | 4 µg/mL (≈ 6.15 µM) | 4 µg/mL (≈ 6.15 µM) | 8 µg/mL (≈ 12.3 µM) | 4 µg/mL (≈ 6.15 µM) | 4 µg/mL (≈ 6.15 µM) | 8 µg/mL (≈ 12.3 µM) | > 64 µg/mL | Non-Toxic | 4 µg/mL (≈ 6.15 µM) | 16 µg/mL (≈ 24.6 µM) | Non-Toxic
C=C[C@]1(C)C[C@@H](OC(=O)CSc2nnc(C)n2/N=C/c2ccccc2O)[C@]2(C)[C@H](C)CC[C@]3(CCC(=O)[C@H]32)[C@@H](C)[C@@H]1O | > 64 µg/mL | 2 µg/mL (≈ 3.36 µM) | 1 µg/mL (≈ 1.68 µM) | 2 µg/mL (≈ 3.36 µM) | 1 µg/mL (≈ 1.68 µM) | 1 µg/mL (≈ 1.68 µM) | 4 µg/mL (≈ 6.73 µM) | > 64 µg/mL | Non-Toxic | 0.5 µg/mL (≈ 0.841 µM) | 4 µg/mL (≈ 6.73 µM) | Non-Toxic
C=C[C@]1(C)C[C@@H](OC(=O)CSc2nnc(C)n2/N=C/c2cccc(C#N)c2)[C@]2(C)[C@H](C)CC[C@]3(CCC(=O)[C@H]32)[C@@H](C)[C@@H]1O | > 64 µg/mL | 2 µg/mL (≈ 3.31 µM) | 1 µg/mL (≈ 1.66 µM) | 4 µg/mL (≈ 6.62 µM) | 2 µg/mL (≈ 3.31 µM) | 2 µg/mL (≈ 3.31 µM) | 4 µg/mL (≈ 6.62 µM) | > 64 µg/mL | Non-Toxic | 1 µg/mL (≈ 1.66 µM) | 8 µg/mL (≈ 13.2 µM) | Non-Toxic
